Source: US9278962B2 (Cytokinetics, Inc., priority 2011, dated 2016)

Tested on: rabbit skeletal myofibrils (approximately 90% fast fibers)
Assay: Activation of fast skeletal myofibrils (PUMA coupled-enzyme ATPase assay, AC1.4)
Type: biochemical
Conditions: Table 2; concentration at which the compound increased enzymatic activity by 40%; calcium at pCa25

In the case of `CC(C)(CNc1nc(-c2ccncc2)ns1)c1ccc(F)cc1` [[2-(4-fluorophenyl)-2-methylpropyl](3-(4-pyridyl)(1,2,4-thiadiazol-5-yl))amine], the “Mean AC1.4” value is reported as “B (B=1-10 uM)”.
In the case of `CC(C)(CNc1nc(N2CCOCC2)ns1)c1ccc(F)cc1` [[2-(4-fluorophenyl)-2-methylpropyl](3-morpholin-4-yl(1,2,4-thiadiazol-5-yl))amine], the “Mean AC1.4” value is reported as “D (D=>20 uM)”.
For `CC(C)(CNc1nc(-c2ccccc2)ns1)c1ccc(F)cc1` [[2-(4-fluorophenyl)-2-methylpropyl](3-phenyl(1,2,4-thiadiazol-5-yl))amine], the “Mean AC1.4” value was “B (B=1-10 uM)”.
`CC(C)(CNc1nc(-c2cn[nH]c2)ns1)c1ccc(F)cc1` [[2-(4-fluorophenyl)-2-methylpropyl](3-pyrazol-4-yl(1,2,4-thiadiazol-5-yl))amine] was tested, and the “Mean AC1.4” value was “B (B=1-10 uM)”.
With `C=Cc1nsc(NCC(C)(C)c2ccc(F)cc2)n1` [[2-(4-fluorophenyl)-2-methylpropyl](3-vinyl(1,2,4-thiadiazol-5-yl))amine] the “Mean AC1.4” value was “B (B=1-10 uM)”.
For `CC(C)(CNc1ncns1)c1ccc(F)cc1` [[2-(4-fluorophenyl)-2-methylpropyl]-1,2,4-thiadiazol-5-ylamine], the “Mean AC1.4” value was “B (B=1-10 uM)”.
With `Cn1cc(-c2nsc(NCC(C)(C)c3ccc(F)cc3)n2)cn1` [[2-(4-fluorophenyl)-2-methylpropyl][3-(1-methylpyrazol-4-yl)(1,2,4-thiadiazol-5-yl] the “Mean AC1.4” value was “B (B=1-10 uM)”.
`CC(C)(CNc1nc(CCN2CCCCC2)ns1)c1ccc(F)cc1` [[2-(4-fluorophenyl)-2-methylpropyl][3-(2-piperidylethyl)(1,2,4-thiadiazol-5-yl)]amine] was tested, and the “Mean AC1.4” value was “D (D=>20 uM)”.
In the case of `COCCCc1nsc(NCC(C)(C)c2ccc(F)cc2)n1` [[2-(4-fluorophenyl)-2-methylpropyl][3-(3-methoxypropyl)(1,2,4-thiadiazol-5-yl)]amine], the “Mean AC1.4” value is reported as “B (B=1-10 uM)”.
With `COc1cncc(-c2nsc(NCC(C)(C)c3ccc(F)cc3)n2)c1` [[2-(4-fluorophenyl)-2-methylpropyl][3-(5-methoxy(3-pyridyl))(1,2,4-thiadiazol-5-yl)]amine] the “Mean AC1.4” value was “B (B=1-10 uM)”.
For `COc1ccc(-c2nsc(NCC(C)(C)c3ccc(F)cc3)n2)cn1` [[2-(4-fluorophenyl)-2-methylpropyl][3-(6-methoxy(3-pyridyl))(1,2,4-thiadiazol-5-yl)]amine], the “Mean AC1.4” value was “B (B=1-10 uM)”.
For `CC(C)(CNc1nc(CN2CCNCC2)ns1)c1ccc(F)cc1` [[2-(4-fluorophenyl)-2-methylpropyl][3-(piperazinylmethyl)(1,2,4-thiadiazol-5-yl)]amine], the “Mean AC1.4” value was “C (C=10-20 uM)”.
In the case of `CC(C)(CNc1nc(CN2CCCCC2)ns1)c1ccc(F)cc1` [[2-(4-fluorophenyl)-2-methylpropyl][3-(piperidylmethyl)(1,2,4-thiadiazol-5-yl)]amine], the “Mean AC1.4” value is reported as “D (D=>20 uM)”.
In the case of `CC(C)(CNc1nc(CN2CCCC2)ns1)c1ccc(F)cc1` [[2-(4-fluorophenyl)-2-methylpropyl][3-(pyrrolidinylmethyl)(1,2,4-thiadiazol-5-yl)]amine], the “Mean AC1.4” value is reported as “D (D=>20 uM)”.
For `CN1CCN(CCc2nsc(NCC(C)(C)c3ccc(F)cc3)n2)CC1` [[2-(4-fluorophenyl)-2-methylpropyl]{3-[2-(4-methylpiperazinyl)ethyl](1,2,4-thiadiazol-5-yl)}amine], the “Mean AC1.4” value was “C (C=10-20 uM)”.
For `COCCNc1nsc(NCC(C)(C)c2ccc(F)cc2)n1` [[2-(4-fluorophenyl)-2-methylpropyl]{3-[(2-methoxyethyl)amino](1,2,4-thiadiazol-5-yl)}amine], the “Mean AC1.4” value was “D (D=>20 uM)”.
For `COc1cccc(C(C)c2nsc(N(C)CC(C)(C)c3ccc(F)cc3)n2)c1` (centres unmarked) [[2-(4-fluorophenyl)-2-methylpropyl]{3-[(3-methoxyphenyl)ethyl](1,2,4-thiadiazol-5-yl)}methylamine], the “Mean AC1.4” value was “D (D=>20 uM)”.
For `COc1cccc(Cc2nsc(NCC(C)(C)c3ccc(F)cc3)n2)c1` [[2-(4-fluorophenyl)-2-methylpropyl]{3-[(3-methoxyphenyl)methyl](1,2,4-thiadiazol-5-yl)}amine], the “Mean AC1.4” value was “A (A=<1 uM)”.
With `COc1cccc(Cc2nsc(N(C)CC(C)(C)c3ccc(F)cc3)n2)c1` [[2-(4-fluorophenyl)-2-methylpropyl]{3-[(3-methoxyphenyl)methyl](1,2,4-thiadiazol-5-yl)}methylamine] the “Mean AC1.4” value was “D (D=>20 uM)”.
For `COc1ccc(Cc2nsc(NCC(C)(C)c3ccc(F)cc3)n2)cc1` [[2-(4-fluorophenyl)-2-methylpropyl]{3-[(4-methoxyphenyl)methyl](1,2,4-thiadiazol-5-yl)}amine], the “Mean AC1.4” value was “A (A=<1 uM)”.
`CN1CCN(Cc2nsc(NCC(C)(C)c3ccc(F)cc3)n2)CC1` [[2-(4-fluorophenyl)-2-methylpropyl]{3-[(4-methylpiperazinyl)methyl](1,2,4-thiadiazol-5-yl)}amine] was tested, and the “Mean AC1.4” value was “C (C=10-20 uM)”.
In the case of `CC(C)Nc1nsc(NCC(C)(C)c2ccc(F)cc2)n1` [[2-(4-fluorophenyl)-2-methylpropyl]{3-[(methylethyl)amino](1,2,4-thiadiazol-5-yl)}amine], the “Mean AC1.4” value is reported as “C (C=10-20 uM)”.
`COc1cccc(Cc2nsc(NCCc3ccc(F)cc3)n2)c1` [[2-(4-fluorophenyl)ethyl]{3-[(3-methoxyphenyl)methyl](1,2,4-thiadiazol-5-yl)}amine] was tested, and the “Mean AC1.4” value was “B (B=1-10 uM)”.
`Fc1ccc(CCNc2nc(Cc3ccc(F)cc3)ns2)cc1` [[2-(4-fluorophenyl)ethyl]{3-[(4-fluorophenyl)methyl](1,2,4-thiadiazol-5-yl)}amine] was tested, and the “Mean AC1.4” value was “B (B=1-10 uM)”.
`COc1ccc(CCNc2nc(Cc3cccc(OC)c3)ns2)cc1` [[2-(4-methoxyphenyl)ethyl]{3-[(3-methoxyphenyl)methyl](1,2,4-thiadiazol-5-yl)}amine] was tested, and the “Mean AC1.4” value was “D (D=>20 uM)”.
For `COc1ccc(CCNc2nc(Cc3ccc(C)cc3)ns2)cc1` [[2-(4-methoxyphenyl)ethyl]{3-[(4-methylphenyl)methyl](1,2,4-thiadiazol-5-yl)}amine], the “Mean AC1.4” value was “D (D=>20 uM)”.
In the case of `CN(C)CCc1nsc(NCC(C)(C)c2ccc(F)cc2)n1` [[2-(5-{[2-(4-fluorophenyl)-2-methylpropyl]amino}(1,2,4-thiadiazol-3-yl))ethyl]dimethylamine], the “Mean AC1.4” value is reported as “D (D=>20 uM)”.
With `CC(C)(CNc1nc(-c2ccccc2CO)ns1)c1ccc(F)cc1` [[2-(5-{[2-(4-fluorophenyl)-2-methylpropyl]amino}-1,2,4-thiadiazol-3-yl)phenyl]methan-1-ol] the “Mean AC1.4” value was “B (B=1-10 uM)”.
For `CN(C)CCN(C)c1nsc(NCC(C)(C)c2ccc(F)cc2)n1` [[2-(dimethylamino)ethyl](5-{[2-(4-fluorophenyl)-2-methylpropyl]amino}(1,2,4-thiadiazol-3-yl))methylamine], the “Mean AC1.4” value was “D (D=>20 uM)”.
With `COc1ccc(-c2nsc(NCC(C)(C)c3ccc(F)cc3)n2)c(Cl)c1` [[3-(2-chloro-4-methoxyphenyl)(1,2,4-thiadiazol-5-yl)][2-(4-fluorophenyl)-2-methylpropyl]amine] the “Mean AC1.4” value was “B (B=1-10 uM)”.
For `CC(C)(CNc1nc(-c2ccc3[nH]nc(N)c3c2)ns1)c1ccc(F)cc1` [[3-(3-amino(1H-indazol-5-yl))(1,2,4-thiadiazol-5-yl)][2-(4-fluorophenyl)-2-methylpropyl]amine], the “Mean AC1.4” value was “A (A=<1 uM)”.
For `CC(C)(CNc1nc(-c2ccc3c(N)n[nH]c3c2)ns1)c1ccc(F)cc1` [[3-(3-amino(1H-indazol-6-yl))(1,2,4-thiadiazol-5-yl)][2-(4-fluorophenyl)-2-methylpropyl]amine], the “Mean AC1.4” value was “A (A=<1 uM)”.
For `CC(C)(CNc1nc(-c2ccc(F)cc2)ns1)c1ccc(F)cc1` [[3-(4-fluorophenyl)(1,2,4-thiadiazol-5-yl)][2-(4-fluorophenyl)-2-methylpropyl]amine], the “Mean AC1.4” value was “B (B=1-10 uM)”.
`CN(C)C(=O)c1cccc(-c2nsc(NCC(C)(C)c3ccc(F)cc3)n2)c1` [[3-(5-{[2-(4-fluorophenyl)-2-methylpropyl]amino}(1,2,4-thiadiazol-3-yl))phenyl]-N,N-dimethylcarboxamide] was tested, and the “Mean AC1.4” value was “B (B=1-10 uM)”.
With `CNC(=O)c1cccc(-c2nsc(NCC(C)(C)c3ccc(F)cc3)n2)c1` [[3-(5-{[2-(4-fluorophenyl)-2-methylpropyl]amino}(1,2,4-thiadiazol-3-yl))phenyl]-N-methylcarboxamide] the “Mean AC1.4” value was “A (A=<1 uM)”.
For `CC(C)(CNc1nc(CCCNS(C)(=O)=O)ns1)c1ccc(F)cc1` [[3-(5-{[2-(4-fluorophenyl)-2-methylpropyl]amino}(1,2,4-thiadiazol-3-yl))propyl](methylsulfonyl)amine], the “Mean AC1.4” value was “B (B=1-10 uM)”.
With `CC(C)(CNc1nc(-c2cccc(CO)c2)ns1)c1ccc(F)cc1` [[3-(5-{[2-(4-fluorophenyl)-2-methylpropyl]amino}-1,2,4-thiadiazol-3-yl)phenyl]methan-1-ol] the “Mean AC1.4” value was “B (B=1-10 uM)”.
`COC/C=C/c1nsc(NCC(C)(C)c2ccc(F)cc2)n1` [[3-((1E)-3-methoxyprop-1-enyl)(1,2,4-thiadiazol-5-yl)][2-(4-fluorophenyl)-2-methylpropyl]amine] was tested, and the “Mean AC1.4” value was “B (B=1-10 uM)”.
`CNC(=O)c1ccc(-c2nsc(NCC(C)(C)c3ccc(F)cc3)n2)cc1` [[4-(5-{[2-(4-fluorophenyl)-2-methylpropyl]amino}(1,2,4-thiadiazol-3-yl))phenyl]-N-methylcarboxamide] was tested, and the “Mean AC1.4” value was “A (A=<1 uM)”.
In the case of `CC(C)(CNc1nc(-c2ccc(CO)cc2)ns1)c1ccc(F)cc1` [[4-(5-{[2-(4-fluorophenyl)-2-methylpropyl]amino}-1,2,4-thiadiazol-3-yl)phenyl]methan-1-ol], the “Mean AC1.4” value is reported as “B (B=1-10 uM)”.
For `CNC(=O)c1ccc(-c2nsc(NCC(C)(C)c3ccc(F)cc3)n2)cn1` [[5-(5-{[2-(4-fluorophenyl)-2-methylpropyl]amino}(1,2,4-thiadiazol-3-yl))(2-pyridyl)]-N-methylcarboxamide], the “Mean AC1.4” value was “B (B=1-10 uM)”.
